From article PMC8400480, “Synthesis, Antibacterial and Pharmacokinetic Evaluation of Novel Derivatives of Harmine N^9-Cinnamic Acid” (Molecules, 2021)
Values after ≈ are worked out from the molar mass of the structure shown.

What was measured:
[1] = system: Pseudomonas aeruginosa CVCC 3359 (PA); assay: MIC, microplate dilution method; assay type: cell-based; conditions: Gram-negative, Mueller-Hinton broth, 37 °C, 18–24 h, read-out: MIC PA
Source text: (§1) According to microplate dilution method, all the prepared compounds were screened for their in vitro antibacterial activity. The investigation included three representative Gram-positive strains, including Staphylococcus aureus CICC 10384 (S. aureus), Staphylococcus albus CICC 20237 (S. albus) and methicillinresistant Staphylococcus aureus ATCC 43300 (MRSA), and two representative Gram-negative strains, including Escherichia coli CICC 10389 (E. coli) and Pseudomonas aeruginosa CVCC 3359 (PA). Harmine and cinnamic acid were used as reference drugs.
(§2) The antibacterial efficiency of all prepared compounds was determined using the microplate dilution method. All compounds were prepared into different concentrations of stock solution according to their solubility. The compounds were added to the 96 well plate and serially diluted in Mueller-Hinton broth. Three Gram-positive strains (S. aureus, S. albus and MRSA) and two Gram-negative strains (E. coli and PA) were cultivated and added to the 96 well plate. The initial concentration of bacteria should be higher than 10^5 CFU/mL. The samples were incubated at 37 °C for 18–24 h. The MIC was determined for compounds by observing change of clarity in the broth. The same procedure was repeated in triplicate.

[2] = system: Staphylococcus albus CICC 20237 (S. albus); assay: MIC, microplate dilution method; assay type: cell-based; conditions: Gram-positive; Mueller-Hinton broth, 37 °C, 18–24 h; read-out: MIC S. albus
Source text: as §1, §2

[3] = system: Escherichia coli CICC 10389 (E. coli); assay: MIC, microplate dilution method; assay type: cell-based; conditions: Gram-negative, Mueller-Hinton broth, 37 °C, 18–24 h, read-out: MIC E. coli
Source text: as §1, §2

[4] = system: Staphylococcus aureus CICC 10384 (S. aureus); assay: MIC, microplate dilution method; assay type: cell-based; conditions: Gram-positive, Mueller-Hinton broth, 37 °C, 18–24 h, read-out: MIC S. aureus
Source text: as §1, §2

[5] = system: methicillinresistant Staphylococcus aureus ATCC 43300 (MRSA); assay: MIC, microplate dilution method; assay type: cell-based; conditions: Gram-positive, Mueller-Hinton broth, 37 °C, 18–24 h, read-out: MIC MRSA
Source text: as §1, §2

Compound	MIC [1]	MIC [2]	MIC [3]	MIC [4]	MIC [5]	melting point
COc1ccc2c3ccnc(C)c3n(CCCCCCOC(=O)/C(=C/c3cc(OC)c(OC)c(OC)c3)c3ccc(OC)c(OC)c3)c2c1 [Compound 6d, 6-(7-Methoxy-1-methyl-9H-pyridine [3,4-b]indole-9-yl) hexyl (E)-2-(3,4-dimethoxyphenyl)-3– (3,4,5-trimethoxyphenyl) acrylate]	212 µg/mL (≈ 318 µM)	53.1 µg/mL (≈ 79.4 µM)	212 µg/mL (≈ 318 µM)	53.1 µg/mL (≈ 79.4 µM)	212 µg/mL (≈ 318 µM)	113.1 to 115 °C
COc1ccc(/C=C/C(=O)OCCCCCCn2c3cc(OC)ccc3c3ccnc(C)c32)cc1 [Compound 6a, 6-(7-Methoxy-1-methyl-9H-pyridine [3,4-b]indole-9-yl) hexyl (E)-3-(4-methoxyphenyl) acrylate]	331 µg/mL (≈ 701 µM)	166 µg/mL (≈ 350 µM)	662 µg/mL (≈ 1400 µM)	82.8 µg/mL (≈ 175 µM)	331 µg/mL (≈ 701 µM)	88.7 to 90.4 °C
COc1ccc2c3ccnc(C)c3n(CCCCCOC(=O)/C=C/c3ccccc3[N+](=O)[O-])c2c1 [Compound 5c, 5-(7-Methoxy-1-methyl-9H-pyridine [3,4-b]indole-9-yl) amyl (E)-3-(2-nitrophenyl) acrylate]	220 µg/mL (≈ 465 µM)	110 µg/mL (≈ 232 µM)	220 µg/mL (≈ 465 µM)	110 µg/mL (≈ 232 µM)	220 µg/mL (≈ 465 µM)	127.4 to 130 °C
COc1ccc2c3ccnc(C)c3n(CCCCCOC(=O)/C(=C/c3cc(OC)c(OC)c(OC)c3)c3ccc(OC)c(OC)c3)c2c1 [Compound 5d, 5-(7-Methoxy-1-methyl-9H-pyridine [3,4-b]indole-9-yl) pentyl (E)-2-(3,4-dimethoxyphenyl)-3-(3,4,5-trimethoxyphenyl) acrylate]	381 µg/mL (≈ 582 µM)	95.3 µg/mL (≈ 146 µM)	762 µg/mL (≈ 1160 µM)	23.8 µg/mL (≈ 36.4 µM)	95.3 µg/mL (≈ 146 µM)	117.4 to 119.9 °C
COc1ccc(/C=C/C(=O)OCCCCn2c3cc(OC)ccc3c3ccnc(C)c32)cc1 [Compound 4a, 4-(7-Methoxy-1-methyl-9H-pyridine [3,4-b]indole-9-yl) butyl (E)-3-(4-methoxyphenyl) acrylate]	305 µg/mL (≈ 686 µM)	305 µg/mL (≈ 686 µM)	152 µg/mL (≈ 343 µM)	305 µg/mL (≈ 686 µM)	610 µg/mL (≈ 1370 µM)	118.7 to 120.2 °C
COc1ccc2c3ccnc(C)c3n(CCCCCCOC(=O)/C=C/c3ccccc3[N+](=O)[O-])c2c1 [Compound 6c, 6-(7-Methoxy-1-methyl-9H-pyridine [3,4-b]indole-9-yl) hexyl(E)-3-(2-nitrophenyl) acrylate]	750 µg/mL (≈ 1540 µM)	750 µg/mL (≈ 1540 µM)	750 µg/mL (≈ 1540 µM)	375 µg/mL (≈ 769 µM)	1500 µg/mL (≈ 3080 µM)	117.3 to 119.9 °C
COc1ccc2c3ccnc(C)c3n(CCCCCCOC(=O)/C=C/c3cc(OC)c(OC)c(OC)c3)c2c1 [Compound 6b, 6-(7-Methoxy-1-methyl-9H-pyridine [3,4-b]indole-9-yl) hexyl (E)-3-(3,4,5-trimethoxyphenyl) acrylate]	305 µg/mL (≈ 573 µM)	152 µg/mL (≈ 286 µM)	305 µg/mL (≈ 573 µM)	152 µg/mL (≈ 286 µM)	306 µg/mL (≈ 574 µM)	73.7 to 73.9 °C
COc1ccc(/C=C/C(=O)OCCCn2c3cc(OC)ccc3c3ccnc(C)c32)cc1 [Compound 3a, 3-(7-Methoxy-1-methyl-9H-pyridine [3,4-b]indole-9-yl)propyl(E)-3-(4-methoxyphenyl) acrylate]	325 µg/mL (≈ 755 µM)	650 µg/mL (≈ 1510 µM)	650 µg/mL (≈ 1510 µM)	325 µg/mL (≈ 755 µM)	1300 µg/mL (≈ 3020 µM)	133.2 to 133.9 °C
O=C(O)/C=C/c1ccccc1 [Cinnamic acid]	1120 µg/mL (≈ 7590 µM)	1120 µg/mL (≈ 7590 µM)	1120 µg/mL (≈ 7590 µM)	1120 µg/mL (≈ 7590 µM)	1120 µg/mL (≈ 7590 µM)	
COc1ccc2c3ccnc(C)c3n(CCCCOC(=O)/C=C/c3ccccc3[N+](=O)[O-])c2c1 [Compound 4c, 4-(7-Methoxy-1-methyl-9H-pyridine [3,4-b]indole-9-yl) butyl (E)-3-(2-nitrophenyl) acrylate]	388 µg/mL (≈ 843 µM)	1550 µg/mL (≈ 3370 µM)	775 µg/mL (≈ 1690 µM)	1550 µg/mL (≈ 3370 µM)	1550 µg/mL (≈ 3370 µM)	130.9 to 132.2 °C
COc1ccc2c3ccnc(C)c3n(CCCCOC(=O)/C=C/c3cc(OC)c(OC)c(OC)c3)c2c1 [Compound 4b, 4-(7-Methoxy-1-methyl-9H-pyridine [3,4-b]indole-9-yl) butyl (E)-3-(3,4,5-trimethoxyphenyl) acrylate]	450 µg/mL (≈ 892 µM)	225 µg/mL (≈ 446 µM)	450 µg/mL (≈ 892 µM)	112 µg/mL (≈ 223 µM)	450 µg/mL (≈ 892 µM)	95.7 to 96.3 °C
COc1ccc2c3ccnc(C)c3n(CCCCCOC(=O)/C=C/c3cc(OC)c(OC)c(OC)c3)c2c1 [Compound 5b, 5-(7-Methoxy-1-methyl-9H-pyridine [3,4-b]indole-9-yl) amyl (E)-3-(3,4,5-trimethoxyphenyl) acrylate]	1140 µg/mL (≈ 2190 µM)	2280 µg/mL (≈ 4390 µM)	1140 µg/mL (≈ 2190 µM)	1140 µg/mL (≈ 2190 µM)	2280 µg/mL (≈ 4390 µM)	103.7 to 104.7 °C
COc1ccc2c3ccnc(C)c3n(CCCCOC(=O)/C(=C/c3cc(OC)c(OC)c(OC)c3)c3ccc(OC)c(OC)c3)c2c1 [Compound 4d, 4-(7-Methoxy-1-methyl-9H-pyridine [3,4-b]indole-9-yl) butyl (E)-2-(3,4-dimethoxyphenyl)-3-(3,4,5-trimethoxyphenyl) acrylate]	212 µg/mL (≈ 332 µM)	53.1 µg/mL (≈ 82.9 µM)	212 µg/mL (≈ 332 µM)	26.6 µg/mL (≈ 41.5 µM)	106 µg/mL (≈ 166 µM)	95.7 to 97.4 °C
COc1ccc2c3ccnc(C)c3n(CCCOC(=O)/C=C/c3cc(OC)c(OC)c(OC)c3)c2c1 [Compound 3b, 3-(7-Methoxy-1-methyl-9H-pyridine [3,4-b]indole-9-yl) propyl (E)-3-(3,4,5-trimethoxyphenyl) acrylate]	319 µg/mL (≈ 650 µM)	638 µg/mL (≈ 1300 µM)	638 µg/mL (≈ 1300 µM)	319 µg/mL (≈ 650 µM)	638 µg/mL (≈ 1300 µM)	102.6 to 104.2 °C
COc1ccc2c3ccnc(C)c3n(CCCOC(=O)/C(=C/c3cc(OC)c(OC)c(OC)c3)c3ccc(OC)c(OC)c3)c2c1 [Compound 3d, 3-(7-Methoxy-1-methyl-9H-pyridine [3,4-b]indole-9-yl) propyl (E)-2-(3,4-dimethoxyphenyl)-3-(3,4,5-trimethoxyphenyl) acrylate]	362 µg/mL (≈ 578 µM)	725 µg/mL (≈ 1160 µM)	725 µg/mL (≈ 1160 µM)	181 µg/mL (≈ 289 µM)	362 µg/mL (≈ 578 µM)	173.6 to 175.2 °C
